# Experimental data as given in EPA's ToxValDB 9.5 (doi:10.2903/j.efsa.2010.1682).
# Key:
# Allium cepa = conditions: not reported; seedling emergence
# Apis mellifera = conditions: acute, duration: 72 hours, mortality
# Bibionidae = conditions: chronic/long-term
# Canidae = conditions: oral, Dog Other, organ weight
# Cucumis sativus = conditions: not reported; seedling emergence
# Daphnia magna = conditions: chronic/long-term; duration: 21 days; reproduction
# Typhlodromus pyri = conditions: not reported
smiles,measurement,setting,value
CCCCC(C#N)(Cn1cncn1)c1ccc(Cl)cc1 (centres undefined) [Myclobutanil],LEL,Allium cepa,300 g/ha
same,NOEC,Anas platyrhynchos; reproductive,31.6 mg/kg-day
same,LC50,"Anas platyrhynchos; short-term, oral, feed, mortality",> 1540 mg/kg-day
same,LD50,Apis mellifera; dermal,> 39.6 µg/piece
same,LD50,"Apis mellifera; oral, unspecified",> 33.9 µg/piece
same,NOEC,Bibionidae,6.07 mg/kg
same,NOEC,Bibionidae; duration: 30 days,4.98 mg/L
same,NOAEL,"Canidae; chronic, duration: 1 years",3.09 mg/kg-day
same,NOAEL,"Canidae; subchronic, duration: 90 days",3.09 mg/kg-day
same,LC50,"Colinus virginianus; acute, oral, diet, mortality",> 567 mg/kg-day
same,LD50,"Colinus virginianus; acute, oral, mortality",510 mg/kg-day
same,NOEC,Colinus virginianus; reproduction developmental,24.2 mg/kg-day
same,LEL,Cucumis sativus,300 g/ha
same,NOEC,Daphnia magna,1 mg/L
same,LC50,"Oncorhynchus mykiss; acute, duration: 96 hours, mortality",2 µg/mL
same,NOEC,"Oncorhynchus mykiss; chronic/long-term, duration: 21 days, growth",0.2 mg/L
same,LD50,"Rattus norvegicus; acute, oral, M, mortality",1600 mg/kg-day
same,NOAEL,"Rattus norvegicus; chronic, duration: 2 years, histopathology: nonneoplastic",2.5 mg/kg-day
same,NOAEL,"Rattus norvegicus; developmental, development",31 mg/kg-day
same,NOEL,"Rattus norvegicus; reproduction developmental, reproduction",16 mg/kg-day
same,LC50,"Tagia sp.; acute, mortality",250 mg/kg
same,NOEC,Tagia sp.; chronic/long-term,10.3 mg/kg
same,LEL,Typhlodromus pyri; mortality,36 g/ha
same,LEL,Typhlodromus pyri; reproduction,36 g/ha
